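Five compound concentrations were applied to cells in 96-well plates for 48 hours; endpoints were derived by simple linear interpolation of the resulting dose-response curve. The concentration for full growth arrest is given as TGI.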
Experiments:
Assay in all cases: growth of human tumour cells (NCI), 48 h
786-0 renal = test system: 786-0 renal
A498 renal = test system: A498 renal
A549 NSCLC = test system: A549 NSCLC
ACHN renal = test system: ACHN renal
BT-549 breast = test system: BT-549 breast
CAKI-1 renal = test system: CAKI-1 renal
CCRF-CEM leukemia = test system: CCRF-CEM leukemia
COLO 205 colon = test system: COLO 205 colon
DLD-1 colon = test system: DLD-1 colon
DMS 273 small cell lung = test system: DMS 273 small cell lung
DU-145 prostate = test system: DU-145 prostate
EKVX NSCLC = test system: EKVX NSCLC
HCC-2998 colon = test system: HCC-2998 colon
HCT-116 colon = test system: HCT-116 colon
HCT-15 colon = test system: HCT-15 colon
HL-60(TB) leukemia = test system: HL-60(TB) leukemia
HOP-62 NSCLC = test system: HOP-62 NSCLC
HOP-92 NSCLC = test system: HOP-92 NSCLC
HS 578T breast = test system: HS 578T breast
HT29 colon = test system: HT29 colon
IGROV1 ovarian = test system: IGROV1 ovarian
K-562 leukemia = test system: K-562 leukemia
KM12 colon = test system: KM12 colon
KM20L2 colon = test system: KM20L2 colon
LOX IMVI melanoma = test system: LOX IMVI melanoma
LXFL 529 NSCLC = test system: LXFL 529 NSCLC
M14 melanoma = test system: M14 melanoma
M19-MEL melanoma = test system: M19-MEL melanoma
MALME-3M melanoma = test system: MALME-3M melanoma
MCF7 breast = test system: MCF7 breast
MDA-MB-231 breast = test system: MDA-MB-231 breast
MDA-MB-435 = test system: MDA-MB-435
MDA-N = test system: MDA-N
MOLT-4 leukemia = test system: MOLT-4 leukemia
NCI-H226 lung = test system: NCI-H226 lung
NCI-H23 lung = test system: NCI-H23 lung
NCI-H460 lung = test system: NCI-H460 lung
NCI-H522 lung = test system: NCI-H522 lung
NCI/ADR-RES ovarian = test system: NCI/ADR-RES ovarian
OVCAR-3 ovarian = test system: OVCAR-3 ovarian
OVCAR-4 ovarian = test system: OVCAR-4 ovarian
OVCAR-5 ovarian = test system: OVCAR-5 ovarian
OVCAR-8 ovarian = test system: OVCAR-8 ovarian
PC-3 prostate = test system: PC-3 prostate
RPMI-8226 leukemia = test system: RPMI-8226 leukemia
RXF 393 renal = test system: RXF 393 renal
SF-268 CNS = test system: SF-268 CNS
SF-295 CNS = test system: SF-295 CNS
SF-539 CNS = test system: SF-539 CNS
SK-MEL-2 melanoma = test system: SK-MEL-2 melanoma
SK-MEL-28 melanoma = test system: SK-MEL-28 melanoma
SK-MEL-5 melanoma = test system: SK-MEL-5 melanoma
SK-OV-3 ovarian = test system: SK-OV-3 ovarian
SN12C renal = test system: SN12C renal
SNB-19 CNS = test system: SNB-19 CNS
SNB-75 CNS = test system: SNB-75 CNS
SNB-78 CNS = test system: SNB-78 CNS
SW-620 colon = test system: SW-620 colon
T-47D breast = test system: T-47D breast
TK-10 renal = test system: TK-10 renal
U251 CNS = test system: U251 CNS
UACC-257 melanoma = test system: UACC-257 melanoma
UACC-62 melanoma = test system: UACC-62 melanoma
UO-31 renal = test system: UO-31 renal
DMS 114 small cell lung = test system: DMS 114 small cell lung
SR leukemia = test system: SR leukemia

Compound: CCCCN(Cc1ccccc1)C(=NC#N)N(Cc1ccccc1)Cc1ccccc1
- TGI (786-0 renal): 56.2 µM
- TGI (A498 renal): > 100 µM
- TGI (A549 NSCLC): > 100 µM
- TGI (ACHN renal): > 72.3 µM
- TGI (BT-549 breast): 62.8 µM
- TGI (CAKI-1 renal): 58.4 µM
- TGI (CCRF-CEM leukemia): > 100 µM
- TGI (COLO 205 colon): 32.2 µM
- TGI (DLD-1 colon): > 100 µM
- TGI (DMS 273 small cell lung): 43.6 µM
- TGI (DU-145 prostate): > 100 µM
- TGI (EKVX NSCLC): > 100 µM
- TGI (HCC-2998 colon): > 75.7 µM
- TGI (HCT-116 colon): 31.8 µM
- TGI (HCT-15 colon): 77.2 µM
- TGI (HL-60(TB) leukemia): > 100 µM
- TGI (HOP-62 NSCLC): 75.3 µM
- TGI (HOP-92 NSCLC): 53.1 µM
- TGI (HS 578T breast): 99.1 µM
- TGI (HT29 colon): 85.2 µM
- TGI (IGROV1 ovarian): > 89.5 µM
- TGI (K-562 leukemia): > 100 µM
- TGI (KM12 colon): 54 µM
- TGI (KM20L2 colon): 95.6 µM
- TGI (LOX IMVI melanoma): 35.1 µM
- TGI (LXFL 529 NSCLC): 34.3 µM
- TGI (M14 melanoma): 47.4 µM
- TGI (M19-MEL melanoma): 62.6 µM
- TGI (MALME-3M melanoma): 79.4 µM
- TGI (MCF7 breast): > 100 µM
- TGI (MDA-MB-231 breast): 51.7 µM
- TGI (MDA-MB-435): 59.3 µM
- TGI (MDA-N): 59.9 µM
- TGI (MOLT-4 leukemia): > 100 µM
- TGI (NCI-H226 lung): 70.5 µM
- TGI (NCI-H23 lung): > 74.5 µM
- TGI (NCI-H460 lung): > 100 µM
- TGI (NCI-H522 lung): 40.6 µM
- TGI (NCI/ADR-RES ovarian): 59.7 µM
- TGI (OVCAR-3 ovarian): 28.9 µM
- TGI (OVCAR-4 ovarian): > 100 µM
- TGI (OVCAR-5 ovarian): > 100 µM
- TGI (OVCAR-8 ovarian): > 100 µM
- TGI (PC-3 prostate): 32.8 µM
- TGI (RPMI-8226 leukemia): 49.8 µM
- TGI (RXF 393 renal): 63.8 µM
- TGI (SF-268 CNS): > 100 µM
- TGI (SF-295 CNS): > 66 µM
- TGI (SF-539 CNS): 46.8 µM
- TGI (SK-MEL-2 melanoma): 37.6 µM
- TGI (SK-MEL-28 melanoma): > 100 µM
- TGI (SK-MEL-5 melanoma): 29.4 µM
- TGI (SK-OV-3 ovarian): > 96.1 µM
- TGI (SN12C renal): > 80.5 µM
- TGI (SNB-19 CNS): > 100 µM
- TGI (SNB-75 CNS): 71.4 µM
- TGI (SNB-78 CNS): > 100 µM
- TGI (SW-620 colon): > 100 µM
- TGI (T-47D breast): > 100 µM
- TGI (TK-10 renal): > 100 µM
- TGI (U251 CNS): 81.4 µM
- TGI (UACC-257 melanoma): 50.7 µM
- TGI (UACC-62 melanoma): 74.7 µM
- TGI (UO-31 renal): > 52.4 µM

Compound: O=C(O)CCSC(=O)Nc1ccccc1F
- TGI (786-0 renal): > 100 µM
- TGI (A498 renal): > 100 µM
- TGI (A549 NSCLC): > 100 µM
- TGI (ACHN renal): > 100 µM
- TGI (CAKI-1 renal): > 100 µM
- TGI (CCRF-CEM leukemia): > 100 µM
- TGI (COLO 205 colon): > 100 µM
- TGI (DMS 114 small cell lung): > 100 µM
- TGI (DMS 273 small cell lung): > 100 µM
- TGI (EKVX NSCLC): > 100 µM
- TGI (HCC-2998 colon): > 100 µM
- TGI (HCT-116 colon): > 100 µM
- TGI (HCT-15 colon): > 100 µM
- TGI (HL-60(TB) leukemia): > 100 µM
- TGI (HOP-62 NSCLC): > 100 µM
- TGI (HT29 colon): > 100 µM
- TGI (K-562 leukemia): > 100 µM
- TGI (KM12 colon): > 100 µM
- TGI (KM20L2 colon): > 100 µM
- TGI (LOX IMVI melanoma): > 100 µM
- TGI (LXFL 529 NSCLC): > 100 µM
- TGI (M14 melanoma): > 100 µM
- TGI (MOLT-4 leukemia): > 100 µM
- TGI (NCI-H226 lung): > 100 µM
- TGI (NCI-H23 lung): > 100 µM
- TGI (NCI-H460 lung): > 100 µM
- TGI (NCI-H522 lung): > 100 µM
- TGI (OVCAR-3 ovarian): > 100 µM
- TGI (OVCAR-4 ovarian): > 100 µM
- TGI (OVCAR-5 ovarian): > 100 µM
- TGI (RPMI-8226 leukemia): > 100 µM
- TGI (RXF 393 renal): > 100 µM
- TGI (SF-268 CNS): > 100 µM
- TGI (SF-539 CNS): > 100 µM
- TGI (SK-MEL-2 melanoma): > 100 µM
- TGI (SK-MEL-28 melanoma): > 100 µM
- TGI (SN12C renal): > 100 µM
- TGI (SNB-19 CNS): > 100 µM
- TGI (SNB-78 CNS): > 100 µM
- TGI (SR leukemia): > 100 µM
- TGI (SW-620 colon): > 100 µM
- TGI (TK-10 renal): > 100 µM
- TGI (U251 CNS): > 100 µM
- TGI (UO-31 renal): > 100 µM

Compound: O=C1C=CC2(O)OCCN(CCO)C2=C1 (stereo unspecified) (tested in a mixture with another compound)
- TGI (786-0 renal): > 100 µM
- TGI (A498 renal): > 100 µM
- TGI (A549 NSCLC): > 100 µM
- TGI (ACHN renal): > 100 µM
- TGI (BT-549 breast): > 100 µM
- TGI (CAKI-1 renal): > 100 µM
- TGI (CCRF-CEM leukemia): > 100 µM
- TGI (COLO 205 colon): > 100 µM
- TGI (DU-145 prostate): > 100 µM
- TGI (EKVX NSCLC): > 100 µM
- TGI (HCC-2998 colon): > 100 µM
- TGI (HCT-116 colon): > 100 µM
- TGI (HCT-15 colon): > 100 µM
- TGI (HL-60(TB) leukemia): > 100 µM
- TGI (HOP-62 NSCLC): > 100 µM
- TGI (HOP-92 NSCLC): > 100 µM
- TGI (HS 578T breast): > 100 µM
- TGI (HT29 colon): > 100 µM
- TGI (IGROV1 ovarian): > 100 µM
- TGI (K-562 leukemia): > 100 µM
- TGI (KM12 colon): > 100 µM
- TGI (LOX IMVI melanoma): > 100 µM
- TGI (M14 melanoma): > 100 µM
- TGI (MALME-3M melanoma): > 100 µM
- TGI (MCF7 breast): > 100 µM
- TGI (MDA-MB-231 breast): > 100 µM
- TGI (MDA-MB-435): > 100 µM
- TGI (MDA-N): > 100 µM
- TGI (MOLT-4 leukemia): > 100 µM
- TGI (NCI-H226 lung): > 100 µM
- TGI (NCI-H23 lung): > 100 µM
- TGI (NCI-H460 lung): > 100 µM
- TGI (NCI-H522 lung): > 100 µM
- TGI (NCI/ADR-RES ovarian): > 100 µM
- TGI (OVCAR-3 ovarian): > 100 µM
- TGI (OVCAR-4 ovarian): > 100 µM
- TGI (OVCAR-5 ovarian): > 100 µM
- TGI (OVCAR-8 ovarian): > 100 µM
- TGI (PC-3 prostate): > 100 µM
- TGI (RPMI-8226 leukemia): > 100 µM
- TGI (RXF 393 renal): > 100 µM
- TGI (SF-268 CNS): > 100 µM
- TGI (SF-295 CNS): > 100 µM
- TGI (SK-MEL-2 melanoma): > 100 µM
- TGI (SK-MEL-28 melanoma): > 100 µM
- TGI (SK-MEL-5 melanoma): > 100 µM
- TGI (SK-OV-3 ovarian): > 100 µM
- TGI (SN12C renal): > 100 µM
- TGI (SNB-19 CNS): > 100 µM
- TGI (SNB-75 CNS): > 100 µM
- TGI (SR leukemia): > 100 µM
- TGI (SW-620 colon): > 100 µM
- TGI (T-47D breast): > 100 µM
- TGI (TK-10 renal): > 100 µM
- TGI (U251 CNS): > 100 µM
- TGI (UACC-257 melanoma): > 100 µM
- TGI (UACC-62 melanoma): > 100 µM
- TGI (UO-31 renal): > 100 µM
